The values below come from patent US20070099915A1, “INHIBITORS OF THE HIV INTEGRASE ENZYME” (PFIZER INC., priority 2005, published 2007).

In experiment [1] the target is T1, Full-length wild type HIV-1 integrase (SF1) (Human immunodeficiency virus type 1 group M subtype B, UniProt P04585).
T1 construct: made in house; host or cells: E. coli BL21 (DE3)
Briefly: Integrase strand-transfer scintillation proximity assay. It is filed as biochemical. The source says: The annealed product represents preprocessed viral ds-DNA derived from the LTR U5 sequence of the viral genome. A ds-DNA control to test for non-specific interactions was made using a 3′ di-deoxy derivative of oligonucleotide #1 annealed to oligonucleotide #2. The CA overhang at the 5′ end of the non-biotinylated strand of the ds-DNA was created artificially by using a complimentary DNA oligonucleotide shortened by 2 base pairs. This configuration eliminates the requisite 3′ processing step of the integrase enzyme prior to the strand-transfer mechanism.
The annealed product had overhanging 3′ ends of poly(dA). […] The radiolabeled product was purified using a NENSORB cartridge and stored in stabilized aqueous solution (PerkinElmer).
Reagents: Streptavidin-coated polyvinyltoluene (PVT) SPA beads were purchased from Amersham Biosciences (Piscataway, N.J.). Cesium chloride was purchased from Shelton Scientific, Inc. (Shelton, Conn.). White, polystyrene, flat-bottom, non-binding surface, 96-well plates were purchased from Corning. All other buffer components were purchased from Sigma (St. Louis, Mo.) unless otherwise indicated.
Enzyme Construction: Full-length wild type HIV-1 integrase (SF1) sequence (amino acids 1-289) was constructed in a pET24a vector (Novagen, Madison, Wis.).
Enzyme Purification: Full length wild-type HIV Integrase was expressed in E. coli BL21 (DE3) cells and induced with 1 mM isopropyl-1 thio-β-D-galactopyranoside (IPTG) when cells reached an optical density between 0.8-1.0 at 600 nm. Cells were lysed by microfluidation in 50 mM HEPES pH 7.0, 75 mM NaCl, 5 mM DTT, 1 mM 4-(2-Aminoethyl)benzenesulfonylfluoride HCl (AEBSF). Lysate was then centrifuged 20 minutes at 11 k rpm in GSA rotor in Sorvall RC-5B at 4° C. Supernant was discarded and pellet resuspended in 50 mM HEPES pH 7.0, 750 mM NaCl, 5 mM DTT, 1 mM AEBSF and homogenized in a 40 mL Dounce homogenizer for 20 minutes on ice. Homogenate was then centrifuged 20 minutes at 11 k rpm in SS34 rotor in Sorvall RC-5B at 4° C. Supernant was discarded and pellet resuspended in 50 mM HEPES pH 7.0, 750 mM NaCl, 25 mM CHAPS, 5 mM DTT, 1 mM AEBSF. Preparation was then centrifuged 20 minutes at 11 k rpm in SS34 rotor in Sorvall RC-5B at 4° C.
Supernant was then diluted 1:1 with 50 mM HEPES pH 7.0, 25 mM CHAPS, 1 mM DTT, 1 mM AEBSF and loaded onto a Q-Sepharose column pre-equilibrated with 50 mM HEPES, pH 7.0, 375 mM NaCl, 25 mM CHAPS, 1 mM DTT, 1 mM AEBSF. The flow through peak was collected and NaCl diluted to 0.1 M with 50 mM HEPES pH 7.0, 25 mM CHAPS, 1 mM DTT, 0.5 mM AEBSF and loaded onto a SP-Sepharose column pre-equilibrated with 50 mM HEPES pH 7.0, 100 mM NaCl, 25 mM CHAPS, 1 mM DTT, 0.5 mM AEBSF. After washing the column with the equilibration buffer, a 100 to 400 mM NaCl gradient was run. The eluted integrase was concentrated and run on a S-300 gel diffusion column using 50 mM HEPES pH 7.0, 500 mM NaCl, 25 mM CHAPS, 1 mM DTT, 0.5 mM AEBSF. […] All columns were run in a 4° C. cold room.
Viral DNA Bead Preparation: Streptavidin-coated SPA beads were suspended to 20 mg/mL in 25 mM 3-morpholinopropanesulfonic acid (MOPS) (pH 7.2) and 1.0% NaN3. Biotinylated viral DNA was bound to the hydrated SPA beads in a batch process by combining […] of ds-DNA to 1 mg of suspended SPA beads (10 μL of 50 μM viral DNA to 1 mL of 20 mg/mL SPA beads). The mixture was incubated at 22° C. for a minimum of 20 min. with occasional mixing followed by centrifugation at 2500 rpm for 10 min.

The subject of experiment [2] is HIV-1 RF virus in CEM-SS cells. Briefly: HIV-1 cell protection assay (XTT dye reduction). It is filed as cell-based. As for the experimental part:
Six days later, 50 μl of XTT solution (1 mg/ml XTT tetrazolium and 20 nM phenazine methosulfate) were added to the wells and the plates were reincubated for four hours. Viability, as determined by the amount of XTT formazan produced, was quantified spectrophotometrically by absorbance at 450 nm.
Data from CPE assays were expressed as the percent of formazan produced in compound-treated cells compared to formazan produced in wells of uninfected, compound-free cells. […] The 50% cytotoxicity concentration (CC50) was calculated as the concentration of compound that decreased the percentage of formazan produced in uninfected, compound-treated cells to 50% of that produced in uninfected, compound-free cells. The therapeutic index was calculated by dividing the cytotoxicity (CC50) by the antiviral activity (EC50).
(Tetrazolium dyes change colour on reduction, which living cells bring about.)

Where [3] appears, read: strand-transfer SPA, 246 nM integrase, 50 nM host DNA, 37° C., 50 min, read-out: IC50.
Setting [4] is: Human immunodeficiency virus 1, CEM-SS, 144 h.
[5] abbreviates: Human immunodeficiency virus 1, 144 h, RF strain of HIV-1, CEM-SS cells, XTT read-out after six days, read-out: EC50.

Like-named read-outs stand apart in the source and are kept apart here.

What is called IC50 is the point on the concentration scale where inhibition reaches its midpoint. By EC50 is commonly meant the midpoint of the concentration-response curve.

As for `COC[C@H]1CCCN1C(=O)c1cn(Cc2ccc(F)cc2)c2cnc3c(c12)CCN(O)C3=O` [Example 19, 3-(4-fluorobenzyl)-7-hydroxy-1-{[(2R)-2-(methoxymethyl)pyrrolidin-1-yl]carbonyl}-3,7,8,9-tetrahydro-6H-pyrrolo[2,3-c]-1,7-naphthyridin-6-one], the IC50 in experiment [1] (setting [3]) was found to be 36 nM. Further, in experiment [2] (setting [4]), the half-maximal effective concentration (EC50) was 4.5 nM.

With `CN(C(=O)c1cn(Cc2ccc(F)cc2)c2cnc3c(c12)CCN(O)C3=O)C1CCOCC1` [Example 20, 3-(4-fluorobenzyl)-7-hydroxy-N-methyl-6-oxo-N-(tetrahydro-2H-pyran-4-yl)-6,7,8,9-tetrahydro-3H-pyrrolo[2,3-c]-1,7-naphthyridine-1-carboxamide], in experiment [1] (setting [3]), the concentration for half-maximal inhibition (IC50) worked out at 19 nM. Also, it took 52 nM to reach a half-maximal effect in experiment [2] (setting [4]) (EC50).

As to `CN(C1CCCC1)S(=O)(=O)c1cn(Cc2ccc(F)cc2)c2cnc3c(c12)CCN(O)C3=O` [Example 21, N-cyclopentyl-3-(4-fluorobenzyl)-7-hydroxy-N-methyl-6-oxo-6,7,8,9-tetrahydro-3H-pyrrolo[2,3-c]-1,7-naphthyridine-1-sulfonamide], the IC50 in experiment [1] (setting [3]) worked out at 905 nM. For the same compound, the concentration giving a half-maximal response (EC50) in experiment [2] (setting [5]) is 120 nM.

Regarding `COCCOCc1cn(Cc2ccc(F)cc2)c2cnc3c(c12)CCN(O)C3=O` [Example 22, 3-(4-fluorobenzyl)-7-hydroxy-1-[(2-methoxyethoxy)methyl]-3,7,8,9-tetrahydro-6H-pyrrolo[2,3-c]-1,7-naphthyridin-6-one], the half-inhibitory concentration (IC50) in experiment [1] (setting [3]) is 14 nM. For the same compound, in experiment [2] (setting [5]), the concentration for a half-maximal effect (EC50) worked out at 1.5 nM.

`O=C1c2ncc3c(c(CN4CCCC4)cn3Cc3ccc(F)cc3)c2CCN1O` [Example 23, 3-(4-fluorobenzyl)-7-hydroxy-1-(pyrrolidin-1-ylmethyl)-3,7,8,9-tetrahydro-6H-pyrrolo[2,3-c]-1,7-naphthyridin-6-one] came in with an IC50 in experiment [1] of 27 nM. In addition, the half-maximal effective concentration (EC50) in experiment [2] (setting [4]) came to 4 nM.

In experiment [1], `O=C1c2ncc3c(c(CO)cn3Cc3ccc(F)cc3)c2CCN1O` [Example 25, 3-(4-fluorobenzyl)-7-hydroxy-1-(hydroxymethyl)-3,7,8,9-tetrahydro-6H-pyrrolo[2,3-c]-1,7-naphthyridin-6-one] came in with an IC50 of 12 nM. For the same compound, the concentration giving a half-maximal response (EC50) in experiment [2] (setting [4]) is 3 nM.

With `O=c1c2ncc3c(c(CO)cn3Cc3ccc(F)cc3)c2ccn1O` [Example 26, 3-(4-fluorobenzyl)-7-hydroxy-1-(hydroxymethyl)-3H-pyrrolo[2,3-c][1,7]naphthyridin-6(7H)-one], the half-maximal inhibitory concentration (IC50) in experiment [1] (setting [3]) came to 38 nM. The EC50 in experiment [2] (setting [5]) was 3 nM.

Take `CN1CCN(Cc2cn(Cc3ccc(F)cc3)c3cnc4c(c23)CCN(O)C4=O)CC1` [Example 29, 3-(4-fluorobenzyl)-7-hydroxy-1-[(4-methylpiperazin-1-yl)methyl]-3,7,8,9-tetrahydro-6H-pyrrolo[2,3-c]-1,7-naphthyridin-6-one]: the IC50 in experiment [1] (setting [3]) amounted to 28 nM. Further, the concentration for a half-maximal effect (EC50) in experiment [2] (setting [5]) was 3 nM.

For the compound `O=C1c2ncc3c(c(COC4CCOCC4)cn3Cc3ccc(F)cc3)c2CCN1O` [Example 30, 3-(4-fluorobenzyl)-7-hydroxy-1-[(tetrahydro-2H-pyran-4-yloxy)methyl]-3,7,8,9-tetrahydro-6H-pyrrolo[2,3-c]-1,7-naphthyridin-6-one], the 50% inhibitory concentration (IC50) in experiment [1] (setting [3]) was determined as 42 nM. The EC50 in experiment [2] (setting [5]) was found to be 5 nM.

Consider `CCOCCOCc1cn(Cc2ccc(F)cc2)c2cnc3c(c12)CCN(O)C3=O` [Example 31, 1-[(2-ethoxyethoxy)methyl]-3-(4-fluorobenzyl)-7-hydroxy-3,7,8,9-tetrahydro-6H-pyrrolo[2,3-c]-1,7-naphthyridin-6-one], for which the 50% inhibitory concentration (IC50) in experiment [1] (setting [3]) is 33 nM. Moreover, in experiment [2] (setting [5]), the half-maximal effective concentration (EC50) was determined as 5 nM.

As to `C[C@H](CO)NCc1cn(Cc2ccc(F)cc2)c2cnc3c(c12)CCN(O)C3=O` [Example 33, 3-(4-fluorobenzyl)-7-hydroxy-1-({[(1R)-2-hydroxy-1-methylethyl]amino}methyl)-3,7,8,9-tetrahydro-6H-pyrrolo[2,3-c]-1,7-naphthyridin-6-one], the IC50 in experiment [1] (setting [3]) is 21 nM. For the same compound, in experiment [2] (setting [5]), the EC50 came to 13 nM.

For `CC(NCc1cn(Cc2ccc(F)cc2)c2cnc3c(=O)n(O)ccc3c12)c1ccc(Br)cc1` (centres unmarked) [Example 36, 1-({[1-(4-bromophenyl)ethyl]amino}methyl)-3-(4-fluorobenzyl)-7-hydroxy-3,7-dihydro-6H-pyrrolo[2,3-c]-1,7-naphthyridin-6-one], in experiment [1] (setting [3]), the IC50 was 10 nM. Moreover, in experiment [2] (setting [5]), the half-maximal effective concentration (EC50) was 3 nM.

Regarding `O=C1c2ncc3c(c(CN4CCCC(F)(F)C4)cn3Cc3ccc(F)cc3)c2CCN1O` [Example 39], the IC50 in experiment [1] (setting [3]) is 10.3 nM. Also, in experiment [2] (setting [5]), the concentration for a half-maximal effect (EC50) amounted to 0.279 nM.

On to `COCCN(Cc1cn(Cc2ccc(F)cc2)c2cnc3c(c12)CCN(O)C3=O)C(C)(C)C` [Example 40, 1-{[tert-butyl(2-methoxyethyl)amino]methyl}-3-(4-fluorobenzyl)-7-hydroxy-3,7,8,9-tetrahydro-6H-pyrrolo[2,3-c]-1,7-naphthyridin-6-one], for which the IC50 in experiment [1] (setting [3]) stood at 24.4 nM. The 50% effective concentration (EC50) in experiment [2] (setting [5]) amounted to 4.6 nM.

For the compound `CN(C)C(=O)[C@@H]1CCCN1Cc1cn(Cc2ccc(F)cc2)c2cnc3c(c12)CCN(O)C3=O` [Example 41, 1-{[3-(4-fluorobenzyl)-7-hydroxy-6-oxo-6,7,8,9-tetrahydro-3H-pyrrolo[2,3-c]-1,7-naphthyridin-1-yl]methyl}-N,N-dimethyl-L-prolinamide], the IC50 in experiment [1] (setting [3]) is 28.1 nM. Further, the 50% effective concentration (EC50) in experiment [2] (setting [5]) is 29 nM.

For `Cc1cc2c(ncc3c2c(CN(C)C)cn3Cc2ccc(F)cc2)c(=O)n1O` [Example 42, 1-[(dimethylamino)methyl]-3-(4-fluorobenzyl)-7-hydroxy-8-methyl-3,7-dihydro-6H-pyrrolo[2,3-c]-1,7-naphthyridin-6-one], the IC50 in experiment [1] (setting [3]) was 8.1 nM. Moreover, the EC50 in experiment [2] (setting [5]) came out at 0.43 nM.

As to `Cc1cc2c(ncc3c2c(CN2CCOCC2)cn3Cc2ccc(F)cc2)c(=O)n1O` [Example 43, 3-(4-fluorobenzyl)-7-hydroxy-8-methyl-1-(morpholin-4-ylmethyl)-3,7-dihydro-6H-pyrrolo[2,3-c]-1,7-naphthyridin-6-one], the concentration for half-maximal inhibition (IC50) in experiment [1] (setting [3]) is 9.36 nM. In addition, the concentration giving a half-maximal response (EC50) in experiment [2] (setting [5]) was determined as 0.41 nM.

In turn, `Cc1c(CN2CCOCC2)c2c(ncc3c2ccn3Cc2ccc(F)cc2)c(=O)n1O` [Example 44, 3-(4-fluorobenzyl)-7-hydroxy-8-methyl-9-(morpholin-4-ylmethyl)-3,7-dihydro-6H-pyrrolo[2,3-c]-1,7-naphthyridin-6-one] yielded an IC50 in experiment [1] of 9.07 nM. Moreover, the EC50 in experiment [2] (setting [5]) was found to be 0.45 nM.

For the compound `C[C@@H]1CN(Cc2cn(Cc3ccc(F)cc3)c3cnc4c(c23)CCN(O)C4=O)C[C@H](C)O1` [Example 45, 1-{[(2R,6S)-2,6-dimethylmorpholin-4-yl]methyl}-3-(4-fluorobenzyl)-7-hydroxy-3,7,8,9-tetrahydro-6H-pyrrolo[2,3-c]-1,7-naphthyridin-6-one], the IC50 in experiment [1] (setting [3]) stood at 9.07 nM. Also, in experiment [2] (setting [5]), the half-maximal effective concentration (EC50) was determined as 0.45 nM.
